pEC50: −log10 of the molar value.
What follows are molecules tested against T1, human M4 muscarinic acetylcholine receptor (Homo sapiens, UniProt P08173) (assay: human FLIPR-based M4 PAM assay (CHO-K1 cells with human M4 receptor and Gaqi5, calcium dye fluorescence)). Conditions: inflection point (IP) of dose response curve, acetylcholine added at 20% of maximum response, read-out: M4 FLIPPR Hu IP.
T1 construct: expressed in transfected cells; host or cells: CHO-K1
T1 sequence (P08173 1-479): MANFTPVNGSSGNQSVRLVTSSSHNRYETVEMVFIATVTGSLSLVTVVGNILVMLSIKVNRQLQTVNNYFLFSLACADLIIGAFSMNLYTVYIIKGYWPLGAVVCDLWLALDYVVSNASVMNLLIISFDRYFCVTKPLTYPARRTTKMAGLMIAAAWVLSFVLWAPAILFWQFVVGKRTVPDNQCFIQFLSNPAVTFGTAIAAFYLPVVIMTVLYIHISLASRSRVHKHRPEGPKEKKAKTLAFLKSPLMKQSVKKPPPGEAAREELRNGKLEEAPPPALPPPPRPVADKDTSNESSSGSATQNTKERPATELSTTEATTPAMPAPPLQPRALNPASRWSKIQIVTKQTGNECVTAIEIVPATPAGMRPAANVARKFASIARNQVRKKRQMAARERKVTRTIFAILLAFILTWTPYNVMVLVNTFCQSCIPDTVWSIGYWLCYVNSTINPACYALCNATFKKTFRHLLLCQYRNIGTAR
Assay type: cell-based
Description: (§1) In a typical experiment the M4 muscarinic acetylcholine receptor modulating activity of the compounds of the present invention was determined in accordance with the following experimental method. CHO-K1 cells stably transfected with human M4 receptor and chimeric G-protein Gaqi5 (Coward P, et al., Analytical Biochemistry, 270:242-248 (1999)) are thawed from liquid N2 storage, resuspended in growth medium, plated in black, clear bottom 384 well plates, and incubated 16-20 hours at 37° C., 5% CO2. On the day of assay, growth medium is removed, the cells are washed 2 times with wash buffer, and cells are incubated in dye loading buffer at 37° C., 5% CO2 for ˜1 hour. Following dye loading the cell plates are placed in a FLIPR Tetra instrument and while monitoring dye fluorescence (excitation 470-495 […]), 10 uL of test substance at increasing concentrations is added, and fluorescence values are recorded for 4 min. Next, 10 uL of acetylcholine is added (final concentration calculated so as to achieve 20% of the maximum acetycholine response), and the fluorescence reading is continued for 3.5 min. In some cases, a third addition of acetylcholine (final concentration calculated to achieve 70% of the maximal acetylcholine response) is performed. The resulting dose response curves are fit to a 4 parameter logistic equation and the final result is determined as the inflection point (IP) of the curve
as §1, with “CHO-K1” for “In a typical experiment the M4 muscarinic acetylcholine receptor modulating activity of the compounds of the present invention was determined in accordance with the following experimental method. CHO-K1”, “Gaqi5” for “Gaqi5 (Coward P, et al., Analytical Biochemistry, 270:242-248 (1999))”, “performed.” for “performed. The resulting dose response curves are fit to a 4 parameter logistic equation and the final result is determined as the inflection point (IP) of the curve”

| Structure (SMILES) | pEC50 |
| --- | --- |
| Cc1ccc(-c2cnn(CC3CCCC3)c2)c(-c2ccc3cc(F)cnc3c2)n1 [Example 13, 7-(3-(1-(cyclopentylmethyl)-1H-pyrazol-4-yl)-6-methylpyridin-2-yl)-3-fluoroquinoline] | 7.64 |
| Cc1ccc(-c2cnn(CC3(F)CCCC3)c2)c(-c2ccc3cc(C(F)(F)F)cnc3c2)n1 [Example 14, 7-(3-(1-((1-fluorocyclopentyl)methyl)-1H-pyrazol-4-yl)-6-methylpyridin-2-yl)-3-(trifluoromethyl)quinoline] | 7.52 |
| Cc1ccc(-c2cnn(CC3(F)CCCC3)c2)c(-c2ccc3c(c2)ncn3C)n1 [Example 16, 5-(3-(1-((1-fluorocyclopentyl)methyl)-1H-pyrazol-4-yl)-6-methylpyridin-2-yl)-1-methyl-1H-benzo[d]imidazole] | 7.47 |
| Cc1ccc(-c2cnn(CC3(F)CCCC3)c2)c(-c2ccc3c(c2)C(=O)NC3)n1 [Example 17, 6-(3-(1-((1-fluorocyclopentyl)methyl)-1H-pyrazol-4-yl)-6-methylpyridin-2-yl)isoindolin-1-one] | 7.59 |
| Cc1ccc(-c2cnn(CC3(F)CCCC3)c2)c(-c2cnc3c(c2)ncn3C)n1 [Example 18, 6-(3-(1-((1-fluorocyclopentyl)methyl)-1H-pyrazol-4-yl)-6-methylpyridin-2-yl)-3-methyl-3H-imidazo[4,5-b]pyridine] | 6.73 |
| Cc1ccc(-c2cnn(CC3(F)CCCC3)c2)c(-c2ccc3c(c2)C(=O)N(CC2CC2)C3)n1 [Example 19, 2-(cyclopropylmethyl)-6-(3-(1-((1-fluorocyclopentyl)methyl)-1H-pyrazol-4-yl)-6-methylpyridin-2-yl)isoindolin-1-one] | 7.70 |
| Cc1ccc(-c2cnn(CC3(F)CCCC3)c2)c(-c2ccc3c(c2)C(=O)N(C2CC2)C3)n1 [Example 20, 2-cyclopropyl-6-(3-(1-((1-fluorocyclopentyl)methyl)-1H-pyrazol-4-yl)-6-methylpyridin-2-yl)isoindolin-1-one] | 7.62 |
| Cc1ccc(-c2cnn(CC3(F)CCCC3)c2)c(-c2ccc3cc(F)cnc3c2)n1 [Example 21, 3-fluoro-7-(3-(1-((1-fluorocyclopentyl)methyl)-1H-pyrazol-4-yl)-6-methylpyridin-2-yl)quinoline] | 7.80 |
| Cc1ccc(-c2cnn(CC3(F)CCCC3)c2F)c(-c2ccc3cccnc3c2)n1 [Example 22, 7-(3-(5-fluoro-1-((1-fluorocyclopentyl)methyl)-1H-pyrazol-4-yl)-6-methylpyridin-2-yl)quinoline] | 7.82 |
| Cc1ccc(-c2cnn(CC3(F)CCCC3)c2F)c(-c2cnc3c(c2)ncn3C)n1 [Example 23, 6-(3-(5-fluoro-1-((1-fluorocyclopentyl)methyl)-1H-pyrazol-4-yl)-6-methylpyridin-2-yl)-3-methyl-3H-imidazo[4,5-b]pyridine] | 6.92 |
| Cc1ccc(-c2cnn(CC3(F)CCCC3)c2F)c(-c2ccc3c(c2)ncn3C)n1 [Example 24] | 7.15 |
| COc1cc2ccc(-c3nc(C)ccc3-c3cnn(CC45CCC(CC4)C5)c3)cc2nn1 [Example 25, 7-(3-(1-(bicyclo[2.2.1]heptan-1-ylmethyl)-1H-pyrazol-4-yl)-6-methylpyridin-2-yl)-3-methoxycinnoline] | 8.00 |
| Cc1ccc(-c2cnn(CC34CCC(CC3)C4)c2)c(-c2ccc3cccnc3c2)n1 [Example 26, 7-(3-(1-(bicyclo[2.2.1]heptan-1-ylmethyl)-1H-pyrazol-4-yl)-6-methylpyridin-2-yl)quinoline] | 8.00 |
| Cc1ccc(-c2cnn(CC3CCC(F)(F)C3)c2)c(-c2ccc3cccnc3c2)n1 (stereo not shown) [Example 28, 7-(3-(1-((3,3-difluorocyclopentyl)methyl)-1H-pyrazol-4-yl)-6-methylpyridin-2-yl)quinoline] | 7.40 |

Other lines, results leading:

| pEC50 | Structure (SMILES) |
| --- | --- |
| 7.96 | Cc1ccc(-c2cnn(CC3(C)CCCC3)c2)c(-c2ccc3cc(F)cnc3c2)n1 [Example 32, 3-fluoro-7-(6-methyl-3-(1-((1-methylcyclopentyl)methyl)-1H-pyrazol-4-yl)pyridin-2-yl) quinoline] |
| 7.46 | Cc1ccc(-c2cnn(CC3(C)CCCC3)c2)c(-c2ccc3c(c2)C(=O)OC3)n1 [Example 33, 6-(6-methyl-3-(1-((1-methylcyclopentyl)methyl)-1H-pyrazol-4-yl)pyridin-2-yl) isobenzofuran-1(3H)-one] |
| 7.24 | Cc1ccc(-c2cnn(CC3(C)CCCC3)c2)c(-c2ccc3cn(C)nc3c2)n1 [Example 34, 2-methyl-6-(6-methyl-3-(1-((1-methylcyclopentyl)methyl)-1H-pyrazol-4-yl)pyridin-2-yl)-2H-indazole] |
| 7.59 | Cc1ccc(-c2cnn(CC3(C)CCCC3)c2)c(-c2ccc3ccn(C)c(=O)c3c2)n1 [Example 35, 2-methyl-7-(6-methyl-3-(1-((1-methylcyclopentyl)methyl)-1H-pyrazol-4-yl)pyridin-2-yl)isoquinolin-1(2H)-one] |
| 7.42 | COc1cc2ccc(-c3nc(C)ccc3-c3cnn(C(F)C4CCCC4)c3F)cc2nn1 (stereo not shown) [Example 36, 7-(3-(1-(cyclopentylfluoromethyl)-5-fluoro-1H-pyrazol-4-yl)-6-methylpyridin-2-yl)-3-methoxycinnoline] |
| 7.29 | COc1cc2ccc(-c3nc(C)ccc3-c3cnn(CC4CC5C(C4)C5(F)F)c3)cc2nn1 (stereo not shown) [Example 37, 7-(3-(1-((6,6-difluorobicyclo[3.1.0]hexan-3-yl)methyl)-1H-pyrazol-4-yl)-6-methylpyridin-2-yl)-3-methoxycinnoline] |
| 7.89 | N#Cc1ccc(-c2cnn(CC3CCCC3)c2)c(-c2ccc3ccnn3c2)n1 [Example 38, 5-(1-(cyclopentylmethyl)-1H-pyrazol-4-yl)-6-(pyrazolo[1,5-a]pyridin-6-yl)picolinonitrile] |
| 6.95 | Cn1ccc2ccc(-c3nc(C#N)ccc3-c3cnn(CC4CCCC4)c3)cc2c1=O [Example 39, 5-(1-(cyclopentylmethyl)-1H-pyrazol-4-yl)-6-(2-methyl-1-oxo-1,2-dihydroisoquinolin-7-yl)picolinonitrile] |
| 7.89 | N#Cc1ccc(-c2cnn(CC3(F)CCCC3)c2)c(-c2ccc3c(c2)C(=O)N(C2CC2)C3)n1 [Example 40, 6-(2-cyclopropyl-3-oxoisoindolin-5-yl)-5-(1-((1-fluorocyclopentyl)methyl)-1H-pyrazol-4-yl) picolinonitrile] |
| 7.35 | CN1Cc2ncc(-c3nc(C#N)ccc3-c3cnn(CC4(F)CCCC4)c3)cc2C1=O [Example 41, 5-(1-((1-fluorocyclopentyl)methyl)-1H-pyrazol-4-yl)-6-(6-methyl-5-oxo-6,7-dihydro-5H-pyrrolo[3,4-b]pyridin-3-yl)picolinonitrile] |
| 7.49 | N#Cc1ccc(-c2cnn(CC3(F)CCCC3)c2)c(-c2ccn3cnnc3c2)n1 [Example 42, 6-([1,2,4]triazolo[4,3-a]pyridin-7-yl)-5-(1-((1-fluorocyclopentyl)methyl)-1H-pyrazol-4-yl)picolinonitrile] |
| 7.54 | N#Cc1ccc(-c2cnn(CC3(F)CCCC3)c2)c(-c2ccn3ncnc3c2)n1 [Example 43, 6-([1,2,4]triazolo[1,5-a]pyridin-7-yl)-5-(1-((1-fluorocyclopentyl)methyl)-1H-pyrazol-4-yl)picolinonitrile] |
| 7.74 | Cc1nnc2cc(-c3nc(C#N)ccc3-c3cnn(CC4(F)CCCC4)c3)ccn12 [Example 44, 5-(1-((1-fluorocyclopentyl)methyl)-1H-pyrazol-4-yl)-6-(3-methyl-[1,2,4]triazolo [4,3-a]pyridin-7-yl)picolinonitrile] |
| 7.19 | CN1C(=O)c2cc(-c3nc(C#N)ccc3-c3cnn(CC4(F)CCCC4)c3)ccc2C1(C)C [Example 45, 5-(1-((1-fluorocyclopentyl)methyl)-1H-pyrazol-4-yl)-6-(1,1,2-trimethyl-3-oxoisoindolin-5-yl)picolinonitrile] |

From patent US11149036B2, “3-(1H-pyrazol-4-yl)pyridine allosteric modulators of the M4 muscarinic acetylcholine receptor” (Merck Sharp & Dohme Corp., priority 2017, dated 2021)
